SMILES strings stand for the structures.

For data set [1], the system named is dental pulp. To be noted: cited from earlier work.
A short description of data set [2]: Self-assessment of pain before and after endodontic treatment (Control vs Experimental). The class given is in vivo, patients. The settings on record: for self-assessed pain, 6 hours / self-assessed pain, 24 hours / self-assessed pain, 48 hours / self-assessed pain, 120 hours / self-assessed pain, Before: scale of 1-10; for self-assessed pain, 6 hours: 6 hours following endodontic treatment; for self-assessed pain, 24 hours: 24 hours following endodontic treatment; for self-assessed pain, 48 hours: 48 hours following endodontic treatment; for self-assessed pain, 120 hours: 120 hours following endodontic treatment; for self-assessed pain, Before: prior to endodontic treatment (baseline). As for the experimental part:
Use of TCA during endodontic treatment is associated with decreased incidence of pain following endodontic treatment. Without wishing to be bound by the theory, it is believed that the TCA composition eliminates unmyelinated C fibers in the apical pulp, particularly in mandibular molars. To assess the decreased pain, individuals were asked to provide a self-assessment, on a scale of 1-10, of pain prior to endodontic treatment, and 6, 24, 48, and 120 hours following endodontic treatment. Patients were divided into two groups, one group (Control, N=9) receiving standard endodontic treatment including sodium hypochlorite as the primary irrigant, with occasional (as necessary) flushes with 17% EDTA, and one group (Experimental, N=10) receiving endodontic treatment including the composition described herein as a pre-treatment applied to pulp to facilitate navigating calcified canals and after initial shaping with patency. The experimental group received sodium hypochlorite irrigation and, as necessary, EDTA flushing, as in the control group.

For data set [3] the following is noted: cited from earlier work.
Data set [4] can be described thus: Experiments with TCA in endodontic treatment including sodium hypochlorite (clinical and radiographic observations). The class given is in vivo. From the text:
FIGS. 7 and 8 show radiographic images from prior to (FIG. 7) and following (FIG. 8) endodontic treatment with a TCA composition as described herein. The image in FIG. 7 is of a tooth that had previously undergone endodontic treatment, but without TCA as a debridement solution.

The mark [5] stands for this setting: endodontic treatment including sodium hypochlorite.
Where [6] appears, read: endodontic treatment including sodium hypochlorite, particularly in lower molar cases.

For the compound `OCl` [Control, sodium hypochlorite, reference compound], the “amount of time that the treatment must be used” value in data set [1] (known debridement method) is 10 min. Further, in data set [1] (strength of 6.25%), the “time to dissolve dental pulp” value is at least 10 min. For the same compound, in data set [2], the “self-assessed pain, 6 hours” value came out at 1; the “self-assessed pain, 24 hours” value turned out to be 0.89; the “self-assessed pain, 48 hours” value worked out at 1.44; the “self-assessed pain, 120 hours” value is 0.56. The “self-assessed pain, Before” value in data set [2] is recorded as 2.67.

Take `O=C(O)C(Cl)(Cl)Cl` [TCA, trichloroacetic acid]: the pKa in data set [3] is recorded as around 0.6. In addition, the “subjective levels of pain following endodontic treatment compared to control” value in data set [2] (compared to the gold standard control, sodium hypochlorite) was “reduced subjective levels of pain”. Further, in data set [2] (patients presenting with necrosis, 6 hours following treatment), the “self-reported pain level at 6 hours” value is on record as 0.5. For the same compound, the “self-reported pain level at 24 hours” value in data set [2] (patients presenting with necrosis, 24 hours following treatment) is 0.25. Also, the “self-reported pain level at 48 hours” value in data set [2] (patients presenting with necrosis, 48 hours following treatment) is on record as 0. Further, in data set [2] (patients presenting with necrosis, 120 hours following treatment), the “self-reported pain level at 120 hours” value stood at 0. For the same compound, in data set [2] (patients presenting with necrosis, before treatment (baseline)), the “self-reported pain level before treatment” value turned out to be 4.5. Besides, in data set [2], the “self-assessed pain, 6 hours” value is 0.7; the “self-assessed pain, 24 hours” value was 0.5; the “self-assessed pain, 48 hours” value worked out at 0.4; the “self-assessed pain, 120 hours” value was 0.2. For the same compound, in data set [2], the “self-assessed pain, Before” value is listed as 3.1. Besides, the “radiographic appearance of retreated root (FIG. 8)” value in data set [4] (after endodontic retreatment with TCA) was “thicker irregular deformed material that fully fills the root tip”. In data set [4] (setting [5]), the bleeding result is “lessened bleeding or elimination of bleeding altogether” and the cleanliness of apex result is “cleaner apex”. In addition, in data set [4] (setting [6]), the inflammation result was “less inflammation” and the pain entry is “reduced pain”. Moreover, in data set [4] (in vivo), the “access of debridement composition to microscopic root canal branches, fins, and anastomoses” value is given as “improved access”; the “removal of debris and material from prior endodontic treatment” value is given as “improved removal of debris”.

The values are drawn from US12186414B2, “Composition and method for endodontic debridement” (priority 2018, dated 2025).
